One block for each molecule: values may come before it.
What was measured:
[1] = Cytoprotective activity against FK866- induced cell death in human U2OS cells assessed as increase in viable cells by measuring relative AUC at 10 uM incubated for […] by fluorometric analysis relative to NAT; assay type: functional
[2] = Oral bioavailability in CD-1 mouse at 30 mg/kg measured after 24 hrs by LC-MS/MS analysis; assay type: ADME, organism-based; conditions: in vivo
[3] = Volume of distribution at steady state in CD-1 mouse at 1 mg/kg, iv measured after 24 hrs by LC-MS/MS analysis; assay type: ADME, organism-based; conditions: in vivo, read-out: Vdss
[4] = Half life in CD-1 mouse at 30 mg/kg, ip measured after 24 hrs by LC-MS/MS analysis; assay type: ADME, organism-based; conditions: in vivo
[5] = AUCinfinity in CD-1 mouse at 30 mg/kg, ip measured after 24 hrs by LC-MS/MS analysis; assay type: ADME, organism-based; parameters: dose 30 mg/kg, time 24 hrs, route ip; conditions: in vivo
[6] = AUClast in CD-1 mouse at 1 mg/kg, iv measured after 24 hrs by LC-MS/MS analysis; assay type: ADME, organism-based; parameters: dose 1 mg/kg, time 24 hrs, route iv; conditions: in vivo
[7] = Bioavailability in CD-1 mouse at 30 mg/kg, ip measured after 24 hrs by LC-MS/MS analysis; assay type: ADME, organism-based; conditions: in vivo
[8] = Tmax in CD-1 mouse at 30 mg/kg, po measured after 24 hrs by LC-MS/MS analysis; assay type: ADME, organism-based; conditions: in vivo
[9] = Cmax in CD-1 mouse at 30 mg/kg, ip measured after 24 hrs by LC-MS/MS analysis; assay type: ADME, organism-based; parameters: time 24 hrs, dose 30 mg/kg, route ip; conditions: in vivo
[10] = Clearance in CD-1 mouse at 1 mg/kg, iv measured after 24 hrs by LC-MS/MS analysis; assay type: ADME, organism-based; conditions: in vivo
[11] = Half life in CD-1 mouse at 1 mg/kg, iv measured after 24 hrs by LC-MS/MS analysis; assay type: ADME, organism-based; conditions: in vivo
[12] = Tmax in CD-1 mouse at 30 mg/kg, ip measured after 24 hrs by LC-MS/MS analysis; assay type: ADME, organism-based; conditions: in vivo
[13] = AUClast in CD-1 mouse at 30 mg/kg, ip measured after 24 hrs by LC-MS/MS analysis; assay type: ADME, organism-based; parameters: dose 30 mg/kg, time 24 hrs, route ip; conditions: in vivo
[14] = Half life in CD-1 mouse at 30 mg/kg, po measured after 24 hrs by LC-MS/MS analysis; assay type: ADME, organism-based; conditions: in vivo
[15] = Cmax in CD-1 mouse at 30 mg/kg, po measured after 24 hrs by LC-MS/MS analysis; assay type: ADME, organism-based; parameters: dose 30 mg/kg, time 24 hrs, route po; conditions: in vivo
[16] = AUCinfinity in CD-1 mouse at 30 mg/kg, po measured after 24 hrs by LC-MS/MS analysis; assay type: ADME, organism-based; parameters: dose 30 mg/kg, time 24 hrs, route po; conditions: in vivo
[17] = AUClast in CD-1 mouse at 30 mg/kg, po measured after 24 hrs by LC-MS/MS analysis; assay type: ADME, organism-based; parameters: dose 30 mg/kg, time 24 hrs, route po; conditions: in vivo
[18] = AUCinfinity in CD-1 mouse at 1 mg/kg, iv measured after 24 hrs by LC-MS/MS analysis; assay type: ADME, organism-based; parameters: time 24 hrs, dose 1 mg/kg, route iv; conditions: in vivo
[19] = system: T98G; assay: Cytotoxicity against human T98G cells assessed as effect on cell viability up to 10 uM measured after 72 hrs by Celltiter-glo luminescent cell viability assay; assay type: toxicity, cell-based
[20] = Toxicity in C57BL/6J mouse assessed as body weight loss at 1 to 3 mg/kg, iv qd administered for 2 weeks and measured every day; assay type: organism-based; conditions: in vivo, 336 h, dose 1-3 mg/kg
[21] = system: U2OS; assay: Cytotoxicity against human U2OS cells assessed as effect on cell viability up to 10 uM measured after 72 hrs by Celltiter-glo luminescent cell viability assay; assay type: toxicity, cell-based
[22] = system: SH-SY5Y; assay: Cytotoxicity against human SH-SY5Y cells assessed as effect on cell viability up to 10 uM measured after 72 hrs by Celltiter-glo luminescent cell viability assay; assay type: toxicity, cell-based
[23] = system: HepG2; assay: Cytotoxicity against human HepG2 cells assessed as effect on cell viability up to 10 uM measured after 72 hrs by Celltiter-glo luminescent cell viability assay; assay type: toxicity, cell-based; conditions: hepg2, 72 h

SMILES: CC(C)(C)c1cc(Cl)c(F)cc1OCC(=O)Nc1ccc(O)cc1
Activity [1]: 40%

SMILES: O=C(COc1ccccc1)Nc1ccc(O)cc1
Activity [1]: 10%

SMILES: CC(C)(C)c1ccc(F)cc1OCC(=O)Nc1ccc(O)cc1
Activity [1]: 171%

SMILES: COC(=O)c1ccc(OCC(=O)Nc2ccc(O)cc2)c(C(C)(C)C)c1
Activity [1]: 133%

SMILES: CC(C)(C)c1cc(Cl)ccc1OCC(=O)Nc1ccc(O)cc1
Activity [1]: 32%

SMILES: COc1ccc(OCC(=O)Nc2ccc(O)cc2)c(C(C)(C)C)c1
Activity [1]: 138%

SMILES: CC(C)(C)c1cc(C#N)ccc1OCC(=O)Nc1ccc(O)cc1
Activity [1]: 126%

SMILES: CC(C)(C)c1cccc(F)c1OCC(=O)Nc1ccc(O)cc1
Activity [1]: 235%

bioavailability [2]: 33.2%
Vd [3]: 1.3 L/kg
half-life [4]: 180 min
AUC(0-inf) [5]: 2520 ng·h/mL
AUC(0-t) at 24 h [6]: 212 ng·h/mL
bioavailability [7]: 39.2%
Tmax [8]: 15 min
Cmax [9]: 1520 ng/mL
clearance [10]: 78.8 mL/min/kg
half-life [11]: 17.4 min
Tmax [12]: 19.8 min
AUC(0-t) at 24 h [13]: 2510 ng·h/mL
half-life [14]: 178 min
Cmax [15]: 1620 ng/mL
AUC(0-inf) [16]: 2130 ng·h/mL
AUC(0-t) at 24 h [17]: 2120 ng·h/mL
AUC(0-inf) [18]: 214 ng·h/mL
SMILES: CC(C)(C)c1ccccc1OCC(=O)Nc1ccc(O)cc1

SMILES: CC(C)(C)c1cc(Br)ccc1OCC(=O)Nc1ccc(O)cc1
Activity [1]: 40%

SMILES: CC(C)(C)c1cc(O)ccc1OCC(=O)Nc1ccc(O)cc1
Activity [1]: 149%

SMILES: CC(C)(C)c1cccc(C#N)c1OCC(=O)Nc1ccc(O)cc1
Activity [19]: Non-Toxic
Activity [20]: Non-Toxic
Activity [21]: Non-Toxic
Activity [22]: Non-Toxic
bioavailability [2]: 7.05%
Vd [3]: 1.13 L/kg
half-life [4]: 63 min
AUC(0-inf) [5]: 1340 ng·h/mL
AUC(0-t) at 24 h [6]: 183 ng·h/mL
bioavailability [7]: 24.2%
Tmax [8]: 15 min
Cmax [9]: 1560 ng/mL
clearance [10]: 90.4 mL/min/kg
half-life [11]: 10.8 min
Tmax [12]: 15 min
AUC(0-t) at 24 h [13]: 1330 ng·h/mL
half-life [14]: 80.4 min
Cmax [15]: 188 ng/mL
AUC(0-inf) [16]: 395 ng·h/mL
AUC(0-t) at 24 h [17]: 388 ng·h/mL
AUC(0-inf) [18]: 185 ng·h/mL
Activity [23]: Non-Toxic

SMILES: CC(C)(C)c1ccc(C#N)cc1OCC(=O)Nc1ccc(O)cc1
Activity [1]: 206%

From ChEMBL document CHEMBL5154841, “Optimization of NAMPT activators to achieve in vivo neuroprotective efficacy” (Eur J Med Chem, 2022)
